Data as given in patent US7342025B2, “Substituted C-imidazo[1,2-a]pyridin-3-yl-methylamines” (Gruenenthal GmbH, priority 2002, dated 2008).

Target: nitrogen monoxide synthase (Rattus norvegicus, UniProt P29476)
Assay: citrulline assay, inhibition of NO synthase
Format: biochemical
Procedure: The IC50 value of each of the example compounds as an inhibitor of NO synthase was determined in a citrulline assay. This assay was carried out as described by D. S. Bredt and S. H. Snyder (Proc. Natl. Acad. Sci. USA (1990), 87, 682-685).

| IC50 [µM] | SMILES |
| --- | --- |
| 4 | Cc1ccn2c(CN(C)C)c(C)nc2c1 [Example 1] |
| 2.5 | Cc1ccnc(NCc2c(C)nc3cc(C)ccn23)c1 [Example 2, (2,7-Dimethyl-imidazo[1,2-a]pyridin-3-ylmethyl)-(4-methyl-pyridin-2-yl)-amine] |
